Assays:
Test in all cases: relative viability (nuclei count vs DMSO), 5 days (fraction); higher = more cells survive
Alpelisib + Decitabine = compound: Cc1nc(NC(=O)N2CCC[C@H]2C(N)=O)sc1-c1ccnc(C(C)(C)C(F)(F)F)c1 [Alpelisib] + Nc1ncn([C@H]2C[C@H](O)[C@@H](CO)O2)c(=O)n1 [Decitabine] (partner 2 µM)
Method in brief: (§1)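 Cells from lung cancer lines were seeded into 1536-well plates and, one day later, dosed by pin tool. Treatments were either a single drug or a fixed dose of an anchor drug with five library-drug doses (not always all listed) in √10 steps. After 5 days, nuclei were stained in a one-step fixation (final 0.05% Triton X-100, 1% formaldehyde, 1 ug/ml Hoechst) and counted on 4× images, and relative viability is the treated-to-vehicle nuclei ratio, as the median of duplicate plates.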

OSI-027 + Pemetrexed = compound: COc1cccc2cc(-c3nc([C@H]4CC[C@H](C(=O)O)CC4)n4ncnc(N)c34)[nH]c12 [OSI-027] + Nc1nc2[nH]cc(CCc3ccc(C(=O)N[C@@H](CCC(=O)O)C(=O)O)cc3)c2c(=O)[nH]1 [Pemetrexed] (partner 0.2 µM)
Method in brief: as §1

Vemurafenib + Alpelisib = compound: CCCS(=O)(=O)Nc1ccc(F)c(C(=O)c2c[nH]c3ncc(-c4ccc(Cl)cc4)cc23)c1F [Vemurafenib] + Cc1nc(NC(=O)N2CCC[C@H]2C(N)=O)sc1-c1ccnc(C(C)(C)C(F)(F)F)c1 [Alpelisib] (partner 2 µM)
Method in brief: as §1

OSI-027 + Linsitinib = compound: COc1cccc2cc(-c3nc([C@H]4CC[C@H](C(=O)O)CC4)n4ncnc(N)c34)[nH]c12 [OSI-027] + C[C@]1(O)C[C@@H](c2nc(-c3ccc4ccc(-c5ccccc5)nc4c3)c3c(N)nccn32)C1 [Linsitinib] (partner 1 µM)
Method in brief: as §1

Cell Line	relative viability (Alpelisib + Decitabine; first compound 0.04 µM)	relative viability (Alpelisib + Decitabine; first compound 0.1265 µM)	relative viability (Alpelisib + Decitabine; first compound 0.4 µM)	relative viability (Alpelisib + Decitabine; first compound 1.265 µM)	relative viability (Alpelisib + Decitabine; first compound 4 µM)	relative viability (OSI-027 + Pemetrexed; first compound 0.01 µM)	relative viability (OSI-027 + Pemetrexed; first compound 0.03162 µM)	relative viability (OSI-027 + Pemetrexed; first compound 0.1 µM)	relative viability (OSI-027 + Pemetrexed; first compound 0.3162 µM)	relative viability (OSI-027 + Pemetrexed; first compound 1 µM)	relative viability (Vemurafenib + Alpelisib; first compound 0.03162 µM)	relative viability (Vemurafenib + Alpelisib; first compound 0.1 µM)	relative viability (Vemurafenib + Alpelisib; first compound 0.3162 µM)	relative viability (Vemurafenib + Alpelisib; first compound 1 µM)	relative viability (OSI-027 + Linsitinib; first compound 0.01 µM)	relative viability (OSI-027 + Linsitinib; first compound 0.03162 µM)	relative viability (OSI-027 + Linsitinib; first compound 0.1 µM)	relative viability (OSI-027 + Linsitinib; first compound 0.3162 µM)	relative viability (OSI-027 + Linsitinib; first compound 1 µM)
201T	0.85	0.78	0.88	0.772	0.628	0.316	0.348	0.313	0.332	0.305	0.974	0.96	1.05	0.981	0.932	0.974	1.01	0.833	0.936
A549	0.197	0.294	0.322	0.25	0.229	–	–	–	–	–	0.568	0.713	0.772	0.867	0.582	0.479	0.372	0.263	0.0989
A-427	0.518	0.483	0.574	0.461	0.44	0.575	0.966	0.783	0.737	0.616	1.02	1.09	1.11	1.14	1.15	1.08	1.05	0.746	0.882
ABC-1	1.15	1	1.21	0.612	1.12	–	–	–	–	–	0.916	0.878	1.25	1.14	0.768	0.749	0.58	0.32	0.316
BEN	0.776	0.679	0.837	0.693	0.749	0.78	0.754	0.472	0.586	0.46	0.966	0.98	0.793	0.784	0.923	0.613	0.627	0.384	0.271
CAL-12T	–	–	–	–	–	1.17	1.18	1.22	0.976	0.527	1.07	1.21	1.4	1.33	0.704	0.753	0.724	0.445	0.353
COR-L23	0.423	0.427	0.438	0.333	0.355	0.194	0.194	0.193	0.181	0.197	0.706	0.693	0.687	0.78	1.02	0.837	0.792	0.549	0.181
COR-L 105	0.55	0.736	0.706	0.683	0.569	1.22	1.18	1.13	1.04	0.999	0.936	–	1.11	0.839	1.07	0.737	0.966	0.749	0.431
Calu-6	–	–	–	–	–	–	–	–	–	–	0.975	0.891	0.817	0.904	0.959	0.87	0.864	0.673	0.504
ChaGo-K-1	0.52	0.529	0.526	0.475	0.446	0.259	0.311	0.251	0.337	0.262	–	–	–	–	–	–	–	–	–
EBC-1	–	–	–	–	–	–	–	–	–	–	0.835	0.833	0.805	0.834	0.901	0.886	0.916	0.78	0.419
EKVX	0.313	0.17	0.389	0.312	0.283	0.438	0.391	0.486	0.382	0.403	0.821	–	0.904	0.777	0.986	0.894	0.779	0.652	0.292
EMC-BAC-2	0.924	–	0.965	0.72	0.747	0.385	0.493	0.478	0.472	0.392	0.704	0.657	0.704	0.698	0.824	0.762	0.763	0.607	0.305
EPLC-272H	0.337	0.374	0.388	0.297	0.284	0.357	0.279	0.263	0.273	0.338	0.927	0.676	0.942	0.889	1.08	1.05	1.12	0.866	0.961
H3255	0.632	0.603	0.65	0.448	0.467	0.517	0.569	0.507	0.513	0.495	0.688	–	0.643	0.663	0.943	1	0.929	0.825	0.452
HARA	0.387	0.556	0.514	0.377	0.432	0.249	0.221	0.231	0.227	0.264	0.801	–	0.879	0.823	0.894	0.803	0.908	0.831	0.201
HCC-15	0.642	0.531	0.622	0.504	0.383	0.221	0.239	0.211	0.227	0.231	0.864	0.892	0.874	0.881	0.881	0.857	0.795	0.662	0.463
HCC-44	0.891	0.97	1.02	0.921	0.889	0.668	0.649	0.708	0.658	0.669	0.761	0.755	0.784	0.795	0.646	0.628	0.584	0.452	0.195
HCC-78	0.705	0.67	0.657	0.562	0.533	0.954	0.918	0.911	0.913	0.887	0.351	0.249	0.663	0.361	0.469	0.386	0.296	0.255	0.232
HCC-366	0.322	0.318	0.327	0.231	0.194	0.18	0.162	0.175	0.186	0.206	0.417	0.391	–	0.379	0.632	0.713	0.64	0.445	0.0575
HCC-827	0.33	0.346	0.347	0.302	0.254	0.259	0.23	0.276	0.264	0.242	0.959	–	1.01	0.9	0.979	1.03	0.935	0.943	0.552

Cell Line	relative viability (Alpelisib + Decitabine; first compound 0.04 µM)	relative viability (Alpelisib + Decitabine; first compound 0.1265 µM)	relative viability (Alpelisib + Decitabine; first compound 0.4 µM)	relative viability (Alpelisib + Decitabine; first compound 1.265 µM)	relative viability (Alpelisib + Decitabine; first compound 4 µM)	relative viability (OSI-027 + Pemetrexed; first compound 0.01 µM)	relative viability (OSI-027 + Pemetrexed; first compound 0.03162 µM)	relative viability (OSI-027 + Pemetrexed; first compound 0.1 µM)	relative viability (OSI-027 + Pemetrexed; first compound 0.3162 µM)	relative viability (OSI-027 + Pemetrexed; first compound 1 µM)	relative viability (Vemurafenib + Alpelisib; first compound 0.03162 µM)	relative viability (Vemurafenib + Alpelisib; first compound 0.1 µM)	relative viability (Vemurafenib + Alpelisib; first compound 0.3162 µM)	relative viability (Vemurafenib + Alpelisib; first compound 1 µM)	relative viability (OSI-027 + Linsitinib; first compound 0.01 µM)	relative viability (OSI-027 + Linsitinib; first compound 0.03162 µM)	relative viability (OSI-027 + Linsitinib; first compound 0.1 µM)	relative viability (OSI-027 + Linsitinib; first compound 0.3162 µM)	relative viability (OSI-027 + Linsitinib; first compound 1 µM)
HOP-62	0.259	0.22	0.216	0.234	0.283	0.371	0.307	0.341	0.331	0.261	1.09	0.954	0.928	0.808	0.952	1.2	1.04	0.712	0.359
IA-LM	–	–	–	–	–	–	–	–	–	–	0.824	0.81	0.777	0.548	0.31	0.383	0.41	0.263	0.131
LC-2-ad	0.823	0.767	0.83	0.735	0.768	0.279	0.239	0.273	0.283	0.271	0.831	0.557	0.867	0.877	0.847	0.751	0.803	0.694	0.291
LCLC-97TM1	0.232	0.222	0.213	0.191	0.177	0.178	0.207	0.147	0.186	0.15	0.26	0.233	0.275	0.262	0.19	0.182	0.139	0.117	0.123
LCLC-103H	0.688	0.717	0.775	0.571	0.465	0.481	0.47	0.481	0.446	0.52	0.901	0.883	1.02	1.04	0.994	0.968	1.07	0.906	1.05
LK-2	0.289	0.256	0.254	0.198	0.185	0.238	–	0.237	0.174	0.158	1.07	1.07	1.22	0.706	0.523	0.184	0.396	0.289	0.138
LOU-NH91	0.823	0.781	0.79	0.679	0.648	0.387	0.368	0.493	0.508	0.63	0.713	0.487	–	0.734	0.954	0.902	0.808	0.69	0.521
LU99A	0.822	0.838	0.899	0.666	0.579	0.181	0.362	0.173	0.239	0.159	0.518	0.486	0.52	0.423	0.51	0.471	0.355	0.243	0.198
LXF-289	0.373	0.352	0.336	0.377	0.277	0.939	0.841	1.04	0.974	0.837	1.02	1.02	1.05	1.03	0.995	1.06	0.972	0.956	0.445
NCI-H522	0.707	0.741	0.681	0.591	0.61	1.04	0.956	0.717	0.858	0.664	–	–	–	–	–	–	–	–	–
NCI-H727	0.973	0.859	0.881	0.854	0.828	–	–	–	–	–	0.519	0.49	0.849	0.574	0.239	0.344	0.281	0.229	0.264
NCI-H1299	–	–	–	–	–	–	–	–	–	–	1.05	1.05	0.928	0.985	0.969	0.94	0.889	0.773	0.635
NCI-H1563	–	–	–	–	–	0.754	0.719	0.72	0.755	0.543	0.874	0.935	0.904	0.949	1.13	1.21	1.1	0.929	0.677
NCI-H1648	0.477	0.508	0.353	0.372	0.253	0.849	0.825	–	0.656	0.701	–	–	–	–	–	–	–	–	–
NCI-H1650	0.346	0.365	0.389	0.345	0.362	0.404	0.361	0.369	0.405	0.475	–	–	–	–	–	–	–	–	–
NCI-H1703	–	–	–	–	–	–	–	–	–	–	0.353	0.318	0.292	0.301	0.381	0.788	0.767	0.48	0.56
NCI-H2170	0.44	0.424	0.477	0.439	0.401	0.26	0.263	0.289	0.325	0.305	0.735	0.301	0.692	0.712	–	–	–	–	–
NCI-H2228	–	–	–	–	–	0.43	0.348	0.322	0.327	0.208	0.964	0.752	0.905	0.627	0.637	0.768	0.576	–	0.368
NCI-H2342	0.697	0.666	0.701	0.711	0.503	0.755	0.818	0.752	0.697	0.5	–	–	–	–	–	–	–	–	–
SW 900	0.425	–	0.411	0.505	0.379	0.368	0.56	0.477	0.508	0.406	–	–	–	–	–	–	–	–	–
